Results on three substances are retold here after article PMC4208696 (Biophysical chemistry, 2014).

pKd: −log10 of the molar value. Read-outs that look alike come from different tables or passages of the source.

One experiment relates to full-length CaM. The following applies: absence of magnesium, ref [46]; cited from earlier work.
The target of the next experiment is CaM76–148 (CaM C-domain) (Homo sapiens, UniProt P0DP23). Type of experiment: binding, mammalian. To be noted: for ΔG (calcium-saturated): 10 mM CaCl2; for ΔG (calcium-saturated) / ΔG (apo): free energy corresponding to estimated Kd, 22 °C; for Fold Change = (Kd, Apo)/(Kd, Ca^2+): apo vs calcium-saturated; for abundance of the apo CaM-peptide complex: calculated, start of calcium titration, 6 μM CaM76–148 with 2 eq (12 μM) peptide.

Experiment [1] concerns the target CaM1–148 (full-length calmodulin) (Homo sapiens, UniProt P0DP23). Format: binding, mammalian. To be noted: for ΔG (calcium-saturated): 10 mM CaCl2; for ΔG (calcium-saturated) / ΔG (apo): free energy corresponding to estimated Kd, 22 °C; for Fold Change = (Kd, Apo)/(Kd, Ca^2+): apo vs calcium-saturated; for abundance of the apo CaM-peptide complex: calculated, start of calcium titration, 6 μM CaM1–148 with 2 eq (12 μM) peptide.

Experiment [2] deals with CaM76–148, sites III and IV. Format: binding, mammalian. To be noted: for increase in calcium-binding affinity (more favorable than without peptide) / ΔΔG2^app = ΔG2^app(CaM + Peptide) − ΔG2 (CaM Alone): 2 eq peptide.
The subject of another experiment is CaM1–80, sites I and II. Format: binding, mammalian. The following applies: 2 eq peptide.
The target in another experiment is CaM1–80 (CaM N-domain) (Homo sapiens, UniProt P0DP23). Type of experiment: binding, mammalian. The following applies: for ΔG (calcium-saturated): 10 mM CaCl2; for ΔG (calcium-saturated) / ΔG (apo): free energy corresponding to estimated Kd, 22 °C; for Fold Change = (Kd, Apo)/(Kd, Ca^2+): apo vs calcium-saturated; for abundance of the apo CaM-peptide complex: calculated, start of calcium titration, 6 μM CaM1–80 with 2 eq (12 μM) peptide.

Experiment [3] relates to CaM1–148, sites III and IV. Type of experiment: binding, mammalian. To be noted: for increase in calcium-binding affinity (more favorable than without peptide) / ΔΔG2^app = ΔG2^app(CaM + Peptide) − ΔG2 (CaM Alone): 2 eq peptide, sites III and IV; for effect of N-domain on calcium-binding affinity of the C-domain: CaM1–148 vs CaM76–148, with 2 eq peptide.
In another experiment the test system is CaM1–148, sites I and II. Type of experiment: binding, mammalian. To be noted: for increase in calcium-binding affinity (more favorable than without peptide) / ΔΔG2^app = ΔG2^app(CaM + Peptide) − ΔG2 (CaM Alone): 2 eq peptide, sites I and II.
Where [4] appears, read: CaM1–148 with 2 eq peptide (Fig. 5A).

“Ac-SRYGLLIKAFSMTAAETARRTREFR-NH2 [hRyR1(1975–1999)p]”: in the experiment on full-length CaM, the “interaction with apo calmodulin (ITC) in words” value is reported as “failed to detect an interaction”. For the same substance, the “ΔG (calcium-saturated)” value on CaM76–148 (CaM C-domain) is -6.80 ± 0.05 kcal/mol; in experiment [1], -8.34 ± 0.01 kcal/mol; at CaM1–80 (CaM N-domain), -6.62 ± 0.09 kcal/mol. In addition, the results for the “Fold Change = (Kd, Apo)/(Kd, Ca^2+)” value (on CaM76–148 (CaM C-domain); in experiment [1]; on CaM1–80 (CaM N-domain)) were roughly 70, roughly 1300 and roughly 600, respectively. Further, the figures for the “ΔG (apo)” value (on CaM76–148 (CaM C-domain); in experiment [1]; on CaM1–80 (CaM N-domain) (apo)) were -4.30 kcal/mol, -4.14 kcal/mol and -2.91 kcal/mol, respectively. The “saturation of peptide (anisotropy)” value on CaM76–148 (CaM C-domain) (calcium-saturated, at ~100 μM) is reported as “greater than 85%”; in experiment [1] (calcium-saturated, at ~100 μM), “greater than 85%”; at CaM1–80 (CaM N-domain) (calcium-saturated (10 mM CaCl2), at ~100 μM CaM1–80) it was “greater than 85%”. The “abundance of the apo CaM-peptide complex” value (on CaM76–148 (CaM C-domain); in experiment [1]; on CaM1–80 (CaM N-domain)) was less than 2% each time. Also, the “increase in calcium-binding affinity (more favorable than without peptide)” value in experiment [2] worked out at 0.69 ± 0.09 kcal/mol; with CaM1–80, sites I and II it was 0.82 ± 0.15 kcal/mol; in experiment [3], 1.09 ± 0.23 kcal/mol; in the experiment with CaM1–148, sites I and II it was 2.10 ± 0.29 kcal/mol. Also, the “ΔΔG2^app = ΔG2^app(CaM + Peptide) − ΔG2 (CaM Alone)” value in experiment [2] is -0.69 ± 0.09 kcal/mol; in the experiment on CaM1–80, sites I and II, -0.82 kcal/mol; in the experiment on CaM1–80, sites I and II (listed as 1975), -0.82 ± 0.15 kcal/mol; in experiment [3], -1.09 ± 0.23 kcal/mol; in the experiment on CaM1–148, sites I and II, -2.10 kcal/mol; in the experiment on CaM1–148, sites I and II (listed as 1975) it was -2.10 ± 0.29 kcal/mol. Besides, the “effect of N-domain on calcium-binding affinity of the C-domain” value in experiment [3] is “no significant effect”.
In the case of “Ac-KSKKAVWHKLLSKQRRRAVVACFRMTPLYN-NH2 [hRyR1(3614–3643)p]”, the values for the negative logarithm of the Kd (pKd) (at CaM76–148 (CaM C-domain); in experiment [1]) were no less than 8.00 and no less than 9.00, respectively. For the same substance, the “ΔG (calcium-saturated)” value at CaM76–148 (CaM C-domain) is -10.80 kcal/mol; in experiment [1] it was -12.15 kcal/mol; at CaM1–80 (CaM N-domain) it was -7.59 ± 0.22 kcal/mol. The “binds (Ca^2+)2-CaMC more favorably than apo CaMC” value on CaM76–148 (CaM C-domain) ((Ca^2+)2-CaMC vs apo CaMC) is ~ 5 kcal/mol. For the same substance, the “calcium dependence of interaction in words” value was “calcium-independent manner” at CaM76–148 (CaM C-domain) (apo and calcium-saturated); “requires calcium for association” at CaM1–80 (CaM N-domain) (apo and calcium-saturated). The “Fold Change = (Kd, Apo)/(Kd, Ca^2+)” value is recorded as roughly 2500 on CaM76–148 (CaM C-domain), roughly 7000 in experiment [1] and roughly 600 on CaM1–80 (CaM N-domain). In addition, the “ΔG (apo)” value was -6.22 ± 0.10 kcal/mol at CaM76–148 (CaM C-domain), -7.02 ± 0.25 kcal/mol in experiment [1] and -3.81 kcal/mol on CaM1–80 (CaM N-domain) (apo). Moreover, the “C-domain fragment affinity more favorable than N-domain fragment” value on CaM76–148 (CaM C-domain) (both in the presence and in the absence of calcium) is on record as 2 orders of magnitude. For the same substance, the “ΔΔG (hRyR1(3614–3643)p − hRyR1(1975–1999)p)” value on CaM76–148 (CaM C-domain) (calcium-saturated C-domain) was no more than -4.00 kcal/mol; on CaM1–80 (CaM N-domain) (calcium-saturated N-domain) it was -0.97 ± 0.24 kcal/mol. Besides, the “abundance of the apo CaM-peptide complex” value was ~ 33% on CaM76–148 (CaM C-domain), ~ 64% in experiment [1] and ~ 1% on CaM1–80 (CaM N-domain). Moreover, the figures for the binding in words entry in experiment [1] (apo (absence of calcium)) and in experiment [1] (high calcium concentrations) were “low micromolar Kd” and “sub-nanomolar Kd”, respectively. In addition, the “increase in calcium-binding affinity (more favorable than without peptide)” value is recorded as 3.41 ± 0.14 kcal/mol in experiment [2]; 2.62 ± 0.11 kcal/mol in the experiment with CaM1–80, sites I and II; 3.83 ± 0.14 kcal/mol in experiment [3]; 3.78 ± 0.20 kcal/mol with CaM1–148, sites I and II. Also, the “ΔΔG2^app = ΔG2^app(CaM + Peptide) − ΔG2 (CaM Alone)” value was -3.41 ± 0.14 kcal/mol in experiment [2]; -2.62 ± 0.11 kcal/mol with CaM1–80, sites I and II; -3.83 ± 0.14 kcal/mol in experiment [3]; -3.78 ± 0.18 kcal/mol in the experiment on CaM1–148, sites I and II; -3.78 ± 0.20 kcal/mol with CaM1–148, sites I and II (listed as 3614). For the same substance, the “weaker binding of CaM1–80 than CaM1–148 and CaM76–148 (fold)” value at CaM1–80 (CaM N-domain) (abstract, CaM1–80 required calcium) is given as ~ 250 fold. Moreover, on CaM1–80 (CaM N-domain) (apo), the “affinity less favorable than that of apo CaM1–148 (factor)” value was 220. Further, at CaM1–80 (CaM N-domain) (calcium-saturated N-domain), the “affinity higher than for hRyR1(1975–1999)p (fold)” value is on record as “approximately 5 fold”. In addition, in experiment [3], the “effect of N-domain on calcium-binding affinity of the C-domain” value was “no significant effect”. Moreover, the “midpoint of calcium titration, C-domain” value in experiment [3] (setting [4]) is on record as ~ 100 nM. For the same substance, in the experiment on CaM1–148, sites I and II (CaM1–148 vs CaM1–80, with 2 eq peptide), the “effect of the presence of the C-domain on calcium-binding free energy of sites I and II (more favorable by)” value is listed as 1.16 ± 0.25 kcal/mol. Besides, the “midpoint of calcium titration, N-domain” value in the experiment with CaM1–148, sites I and II (setting [4]) is on record as ~ 1 μM.
In the case of “CaM76–148: CaM C-domain, encompassing residues 76 to 148”, the “ΔΔG2 (CaM76–148 vs CaM1–148)” value in experiment [2] (CaM alone) is reported as 0.17 ± 0.04 kcal/mol.

One may read the pKd as the Kd on a negative log10 scale, so that one unit is a factor of ten.
